Data as given in ChEMBL document CHEMBL1150917, “Chemical constituents from Cassytha filiformis II” (1998).
Calls of active or inactive are those of the source. No cut-off for these calls is given here.

Assays:
Platelet [1] = experiment: Inhibition of PAF-induced platelet aggregation in rabbit platelet at 100 uM relative to control; format: functional, Oryctolagus cuniculus; design: scale not given: the % may be the effect or the level left
Platelet [2] = experiment: Inhibition of arachidonic acid-induced platelet aggregation in rabbit platelet at 100 uM relative to control; format: functional, Oryctolagus cuniculus; design: scale not given: the % may be the effect or the level left
Platelet [3] = experiment: Inhibition of arachidonic acid-induced platelet aggregation in rabbit platelet at 20 uM relative to control; format: functional, cell-based; conditions: Oryctolagus cuniculus
Platelet [4] = experiment: Inhibition of collagen-induced platelet aggregation in rabbit platelet at 100 uM relative to control; format: functional, Oryctolagus cuniculus; design: scale not given: the % may be the effect or the level left
Platelet [5] = experiment: Inhibition of ADP-induced platelet aggregation in rabbit platelet at 100 uM relative to control; format: functional, Oryctolagus cuniculus; design: scale not given: the % may be the effect or the level left
Platelet [6] = experiment: Inhibition of arachidonic acid-induced platelet aggregation in rabbit platelet at 50 uM relative to control; format: functional, cell-based; conditions: Oryctolagus cuniculus
Platelet [7] = experiment: Inhibition of ADP-induced platelet aggregation in rabbit platelet at 50 uM relative to control; format: functional, cell-based; conditions: Oryctolagus cuniculus
Platelet [8] = experiment: Inhibition of PAF-induced platelet aggregation in rabbit platelet at 50 uM relative to control; format: functional, cell-based; conditions: Oryctolagus cuniculus
Platelet [9] = experiment: Inhibition of collagen-induced platelet aggregation in rabbit platelet at 50 uM relative to control; format: functional, cell-based; conditions: Oryctolagus cuniculus
Platelet [10] = experiment: Inhibition of arachidonic acid-induced platelet aggregation in rabbit platelet at 25 uM relative to control; format: functional, Oryctolagus cuniculus; design: scale not given: the % may be the effect or the level left
Platelet [11] = experiment: Inhibition of PAF-induced platelet aggregation in rabbit platelet at 25 uM relative to control; format: functional, Oryctolagus cuniculus; design: scale not given: the % may be the effect or the level left
Platelet [12] = experiment: Inhibition of collagen-induced platelet aggregation in rabbit platelet at 25 uM relative to control; format: functional, Oryctolagus cuniculus; design: scale not given: the % may be the effect or the level left
Platelet [13] = experiment: Inhibition of ADP-induced platelet aggregation in rabbit platelet at 25 uM relative to control; format: functional, Oryctolagus cuniculus; design: scale not given: the % may be the effect or the level left

Row | SMILES | Activity (Platelet [1]) [%] | Activity (Platelet [2]) [%] | Activity (Platelet [3]) | Activity (Platelet [4]) [%] | Activity (Platelet [5]) [%] | Activity (Platelet [6]) | Activity (Platelet [7]) | Activity (Platelet [8]) | Activity (Platelet [9]) | Activity (Platelet [10]) [%] | Activity (Platelet [11]) [%] | Activity (Platelet [12]) [%] | Activity (Platelet [13]) [%]
1 | COc1cc2c(cc1O)C[C@H]1c3c(cc4c(c3-2)OCO4)CCN1C [CASSYTHICINE] | 68.1 | 0 | Active | 0 | 0 | – | – | – | – | – | – | – | –
2 | COc1cc2c(cc1OC)-c1c3c(c(OC)c4c1[C@H](C2)N(C)CC4)OCO3 [OCOTEINE] | 87.7 | 0 | – | 0 | – | – | – | – | – | – | – | – | –
3 | COc1cc2c(cc1OC)-c1c(OC)c(O)cc3c1[C@H](C2)N(C)CC3 [PREDICENTRINE] | 74 | 0 | – | 0 | – | – | – | – | – | – | – | – | –
4 | COC(=O)N1CCc2c(OC)c3c(c4c2[C@@H]1Cc1cc(O)c(OC)cc1-4)OCO3 [CATHAFORMINE] | 61.5 | 0 | – | 7.6 | – | Active | Active | Active | Active | – | – | – | –
5 | COc1cc2c(cc1O)C[C@@H]1NCCc3cc4c(c-2c31)OCO4 [ACTINODAPHNINE] | 0 | 0 | – | 0 | 0 | Active | Active | Active | Active | – | – | – | –
6 | CC(=O)Oc1ccccc1C(=O)O [ASPIRIN] | – | – | – | – | – | – | – | – | – | 0 | 90.5 | 87.8 | 77.9
7 | COC(=O)N1CCc2cc3c(c4c2[C@@H]1Cc1cc(O)c(OC)cc1-4)OCO3 [CATHAFILINE] | – | 0 | – | – | – | Active | Active | Active | Active | – | – | – | –
